Experimental findings from US20230265151A1, “GIP/GLP1 CO-AGONIST COMPOUNDS” (priority 2020, published 2023) are described below.

Read-outs that look alike come from different tables or passages of the source. *1 amine or outer side, *2 acyl side, *3 side chain or, on linkers, in order; H or OH if unused. Where a SMILES comes first, the peptide text is derived from it. Side-chain parts run from the residue outwards. [ ]: non-standard residue; d: D form. The star is where a group is joined. αMePhe(2-F) = C[C@](N)(Cc1ccccc1F)C(=O)O; γGlu = O=C(O)[C@H](CCC(=O)[*:2])N[*:1]; C14 diacid = O=C(O)CCCCCCCCCCCCC(=O)*; αMeY = C[C@](N)(Cc1ccc(O)cc1)C(=O)O; 4Pal = N[C@@H](Cc1ccncc1)C(=O)O; αMeL = CC(C)C[C@](C)(N)C(=O)O; αMeS = C[C@](N)(CO)C(=O)O; Orn = NCCC[C@H](N)C(=O)O; AEEA = NCCOCCOCC(=O)O; Aib = CC(C)(N)C(=O)O

Assay [1] concerns the target T1, human GIP receptor (human) (UniProt P48546).
T1 sequence (looked up): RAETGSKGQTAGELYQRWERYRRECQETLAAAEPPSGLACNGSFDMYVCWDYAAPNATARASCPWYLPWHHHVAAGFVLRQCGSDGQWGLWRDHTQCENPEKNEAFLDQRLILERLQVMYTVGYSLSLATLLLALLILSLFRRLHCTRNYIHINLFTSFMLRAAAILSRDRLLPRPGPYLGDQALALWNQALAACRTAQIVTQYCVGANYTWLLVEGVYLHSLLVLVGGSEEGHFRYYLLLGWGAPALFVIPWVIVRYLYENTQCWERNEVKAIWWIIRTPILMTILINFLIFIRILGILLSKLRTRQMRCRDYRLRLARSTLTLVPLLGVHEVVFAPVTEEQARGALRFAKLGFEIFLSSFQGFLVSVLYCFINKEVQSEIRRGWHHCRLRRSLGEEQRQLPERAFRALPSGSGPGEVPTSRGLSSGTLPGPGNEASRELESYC
As to the kind of experiment: cell-based or functional assay.

In a further assay the target is T2, hGIPR (Homo sapiens, UniProt P48546).
T2 construct: expressed in transfected cells
T2 sequence (P48546 22-466): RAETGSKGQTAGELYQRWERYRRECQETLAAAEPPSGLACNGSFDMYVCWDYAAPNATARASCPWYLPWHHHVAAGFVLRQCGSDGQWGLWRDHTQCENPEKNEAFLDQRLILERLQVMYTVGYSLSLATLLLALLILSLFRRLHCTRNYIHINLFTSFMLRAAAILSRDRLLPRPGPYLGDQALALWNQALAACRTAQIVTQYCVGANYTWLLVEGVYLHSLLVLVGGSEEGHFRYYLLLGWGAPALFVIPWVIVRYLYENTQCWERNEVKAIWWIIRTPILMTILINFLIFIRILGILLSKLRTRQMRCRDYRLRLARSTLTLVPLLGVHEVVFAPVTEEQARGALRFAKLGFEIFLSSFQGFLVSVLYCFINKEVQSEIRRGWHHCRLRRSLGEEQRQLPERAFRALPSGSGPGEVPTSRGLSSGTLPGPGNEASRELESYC
In words: Functional cAMP formation (HTRF) in HEK-293 clonal cells expressing hGIPR, 0.1% bovine casein, without or with 1.0% human serum albumin. The assay is classed as cell-based. To be noted: for EC50: hGIPR EC50, nM (SEM, n), cAMP, 0.1% bovine casein (no human serum albumin), geometric mean. An outline of the steps:
(§1)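 Readings of the HTRF 665/620 nm ratio, which falls as cAMP rises, were converted to nM cAMP using a standard curve after 30 min peptide exposure at 37° C.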
(In general: Changes in cAMP serve as a functional read-out for many G protein-coupled receptors.)

For the next assay, the target named is T3, hGCGR (Homo sapiens, UniProt P47871).
T3 construct: expressed in transfected cells
In words: Functional cAMP formation (HTRF) in HEK-293 clonal cells expressing hGCGR, 0.1% bovine casein, without or with 1.0% human serum albumin. In kind it is cell-based. As to conditions: hGCGR EC50, nM (SEM, n), geometric mean. Summed up: as §1

The next assay has as its target hGLP-1R (Homo sapiens, UniProt P43220). In words: Functional cAMP formation (HTRF) in HEK-293 clonal cells expressing hGLP-1R, 0.1% bovine casein, without or with 1.0% human serum albumin. In kind it is cell-based. Also on record: expressed in transfected cells. An outline of the steps: as §1
Where [2] appears, read: HEK293, read-out: hGIPR Emax, % ± SEM, 0.1% bovine casein and 1.0% human serum albumin, 37° C., percent of maximal response to GIP(1-42)NH2.
Setting [3] is: 0.1% bovine casein and 1.0% human serum albumin, 37° C.

hGLP-1R, sequence (P43220 24-463): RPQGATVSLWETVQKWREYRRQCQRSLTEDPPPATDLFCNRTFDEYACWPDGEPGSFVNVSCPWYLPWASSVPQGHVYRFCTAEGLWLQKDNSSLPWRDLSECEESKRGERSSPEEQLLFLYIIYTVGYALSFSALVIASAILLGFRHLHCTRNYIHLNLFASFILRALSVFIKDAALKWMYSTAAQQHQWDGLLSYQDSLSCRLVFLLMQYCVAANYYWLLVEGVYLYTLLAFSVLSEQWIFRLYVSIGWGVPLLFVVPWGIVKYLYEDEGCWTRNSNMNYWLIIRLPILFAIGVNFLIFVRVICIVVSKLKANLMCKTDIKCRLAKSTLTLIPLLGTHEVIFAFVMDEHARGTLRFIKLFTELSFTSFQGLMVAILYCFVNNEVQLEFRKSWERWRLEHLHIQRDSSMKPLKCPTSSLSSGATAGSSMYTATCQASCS
T3 sequence (P47871 26-477): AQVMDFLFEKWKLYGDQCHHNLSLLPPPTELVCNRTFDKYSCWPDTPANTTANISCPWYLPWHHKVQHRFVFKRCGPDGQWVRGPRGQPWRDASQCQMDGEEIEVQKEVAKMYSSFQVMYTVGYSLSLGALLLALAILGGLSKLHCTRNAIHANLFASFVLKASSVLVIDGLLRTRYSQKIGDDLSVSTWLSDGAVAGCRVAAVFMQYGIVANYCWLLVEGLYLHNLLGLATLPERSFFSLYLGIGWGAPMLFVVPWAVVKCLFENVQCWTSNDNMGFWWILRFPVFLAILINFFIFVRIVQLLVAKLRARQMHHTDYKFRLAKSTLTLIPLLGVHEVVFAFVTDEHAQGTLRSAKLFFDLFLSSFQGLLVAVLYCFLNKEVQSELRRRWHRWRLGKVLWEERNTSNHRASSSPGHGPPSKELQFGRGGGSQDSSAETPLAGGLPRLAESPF

In assay [1], “hGIP(1-42)NH2 (from UniProt P09681 52-93) (ligand)” had an Emax, cAMP of 100%; a cAMP EC50 (1.0% HSA) of 0.597 nM; a cAMP Emax (1.0% HSA) of 98%.
In the case of `CC[C@H](C)[C@H](NC(=O)[C@H](CCCN)NC(=O)[C@H](CC(=O)O)NC(=O)[C@H](CC(C)C)NC(=O)[C@](C)(CC(C)C)NC(=O)[C@@H](NC(=O)[C@H](CO)NC(=O)[C@H](Cc1ccncc1)NC(=O)[C@H](CC(=O)O)NC(=O)[C@H](CO)NC(=O)[C@@H](NC(=O)[C@](C)(Cc1ccccc1F)NC(=O)[C@@H](NC(=O)CNC(=O)[C@H](CCC(=O)O)NC(=O)C(C)(C)NC(=O)[C@@H](N)Cc1ccc(O)cc1)[C@@H](C)O)[C@@H](C)O)[C@@H](C)CC)C(=O)N[C@@H](C)C(=O)N[C@@H](CCC(N)=O)C(=O)NC(C)(C)C(=O)N[C@@H](CCCCNC(=O)COCCOCCNC(=O)COCCOCCNC(=O)CC[C@H](NC(=O)CCCCCCCCCCOc1ccc(C(=O)O)cc1)C(=O)O)C(=O)N[C@@H](Cc1ccccc1)C(=O)N[C@H](C(=O)N[C@H](CCC(=O)O)C(=O)N[C@@](C)(Cc1ccc(O)cc1)C(=O)N[C@@H](CC(C)C)C(=O)N[C@H](C(=O)N[C@@H](CCC(=O)O)C(=O)NCC(=O)NCC(=O)N1CCC[C@H]1C(=O)N[C@@H](CO)C(=O)N[C@@H](CO)C(=O)NCC(=O)N[C@@H](C)C(=O)N1CCC[C@H]1C(=O)N1CCC[C@H]1C(=O)N1CCC[C@H]1C(=O)N[C@@H](CO)C(=O)N[C@@H](CCCCNC(=O)COCCOCCNC(=O)COCCOCCNC(=O)CC[C@H](NC(=O)CCCCCCCCCCOc1ccc(C(=O)O)cc1)C(=O)O)C(N)=O)[C@@H](C)CC)[C@@H](C)CC` [Example 288], the maximal response (Emax) turned out to be 85.2% on hGIPR (setting [2]); 110% on hGIPR (HEK293, read-out: hGIPR Emax, % ± SEM, cAMP, 37° C., 0.1% bovine casein, percent of maximal response to GIP(1-42)NH2, arithmetic mean); 123% on hGLP-1R (HEK293, read-out: hGLP-1R Emax, % ± SEM, 0.1% bovine casein and 1.0% human serum albumin, 37° C., percent of maximal response to GLP-1(7-36)NH2). Also, the EC50 was 0.0219 nM at hGIPR (37° C.); greater than 9950 nM on hGCGR (setting [3]); greater than 9950 nM at hGCGR (cAMP, 37° C., 0.1% bovine casein (no human serum albumin)).
In the case of `CC[C@H](C)[C@H](NC(=O)[C@H](CCCN)NC(=O)[C@H](CC(=O)O)NC(=O)[C@H](CC(C)C)NC(=O)[C@](C)(CC(C)C)NC(=O)[C@@H](NC(=O)[C@](C)(CO)NC(=O)[C@H](Cc1ccncc1)NC(=O)[C@H](CC(=O)O)NC(=O)[C@H](CO)NC(=O)[C@@H](NC(=O)[C@](C)(Cc1ccccc1F)NC(=O)[C@@H](NC(=O)CNC(=O)[C@H](CCC(=O)O)NC(=O)C(C)(C)NC(=O)[C@@H](N)Cc1ccc(O)cc1)[C@@H](C)O)[C@@H](C)O)[C@@H](C)CC)C(=O)N[C@@H](C)C(=O)N[C@@H](CCC(N)=O)C(=O)NC(C)(C)C(=O)N[C@@H](CCCCNC(=O)COCCOCCNC(=O)COCCOCCNC(=O)CC[C@H](NC(=O)CCCCCCCCCCCCC(=O)O)C(=O)O)C(=O)N[C@@H](Cc1ccccc1)C(=O)N[C@H](C(=O)N[C@@H](CCCCNC(=O)COCCOCCNC(=O)COCCOCCNC(=O)CC[C@H](NC(=O)CCCCCCCCCCCCC(=O)O)C(=O)O)C(=O)N[C@@](C)(Cc1ccc(O)cc1)C(=O)N[C@@H](CC(C)C)C(=O)N[C@H](C(=O)N[C@@H](CCC(=O)O)C(=O)NCC(=O)NCC(=O)N1CCC[C@H]1C(=O)N[C@@H](CO)C(=O)N[C@@H](CO)C(=O)NCC(=O)N[C@@H](C)C(=O)N1CCC[C@H]1C(=O)N1CCC[C@H]1C(=O)N1CCC[C@H]1C(=O)N[C@@H](CO)C(N)=O)[C@@H](C)CC)[C@@H](C)CC` [Example 215] (H-Y[Aib]EGT[αMePhe(2-F)]TSD[4Pal][αMeS]I[αMeL]LD[Orn]IAQ[Aib]K([AEEA-AEEA-γGlu-C14 diacid])FIK([AEEA-AEEA-γGlu-C14 diacid])[αMeY]LIEGGPSSGAPPPS-NH2), the maximal effect (Emax) is 91.3% on hGIPR (setting [2]); 85% at hGIPR (HEK293, read-out: hGIPR Emax, % ± SEM, percent of maximal response to GIP(1-42)NH2, 37° C., 0.1% bovine casein, arithmetic mean); 89.8% on hGLP-1R (HEK293, read-out: hGLP-1R Emax, % ± SEM, percent of maximal response to GLP-1(7-36)NH2, 37° C., 0.1% bovine casein, arithmetic mean). The EC50 on hGIPR (incubated at 37° C.) was 0.0437 nM; at hGCGR (setting [3]) it was greater than 9950 nM; at hGCGR (cAMP, incubated at 37° C., 0.1% bovine casein (no human serum albumin)), greater than 9950 nM; on hGLP-1R (hGLP-1R EC50, nM (SEM, n), cAMP, incubated at 37° C., 0.1% bovine casein (no human serum albumin), geometric mean) it was 0.44 nM.

Usually Emax stands for the maximal effect, on the per cent scale that the assay sets. A word on the EC50: it is the concentration needed to bring the measured effect to its halfway point. A low value points to greater potency.
